Laboratory results from PubChem BioAssay AID1963836 (Molecular Pharmacology Branch, DTP, NCI, 2024).

System: 857933-349-R-J2-PDC complex spheroid viability
Assay: Anticancer human tumor 857933-349-R-J2-PDC patient-derived colon adenocarcinoma cell line growth inhibition [POLQ]
Settings: for IC50: curve of first compound; for viability, T/C: stronger effect = lower value
Outline: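 Growth inhibition in 3D: complex spheroids (tumor PDC, HUVEC, MSC) treated with POLQ inhibitor combinations; where Cmax unknown, highest tested concentration 10 microM, except SN-38 at 1 microM.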

[1] = second compound 0.0316 µM, first compound 0.0316 µM
[2] = second compound 0.0316 µM, first compound 0.1 µM
[3] = second compound 0.0316 µM, first compound 0.316 µM
[4] = second compound 0.0316 µM, first compound 1 µM
[5] = second compound 0.0316 µM, first compound 3.16 µM
[6] = second compound 0.0316 µM, first compound 10 µM
[7] = second compound 0.1 µM, first compound 0.0316 µM
[8] = second compound 0.1 µM, first compound 0.1 µM
[9] = second compound 0.1 µM, first compound 0.316 µM
[10] = second compound 0.1 µM, first compound 1 µM
[11] = second compound 0.1 µM, first compound 3.16 µM
[12] = second compound 0.1 µM, first compound 10 µM
[13] = second compound 0.316 µM, first compound 0.0316 µM
[14] = second compound 0.316 µM, first compound 0.1 µM
[15] = second compound 0.316 µM, first compound 0.316 µM
[16] = second compound 0.316 µM, first compound 1 µM
[17] = second compound 0.316 µM, first compound 3.16 µM
[18] = second compound 0.316 µM, first compound 10 µM
[19] = second compound 1 µM, first compound 0.0316 µM
[20] = second compound 1 µM, first compound 0.1 µM
[21] = second compound 1 µM, first compound 0.316 µM
[22] = second compound 1 µM, first compound 1 µM
[23] = second compound 1 µM, first compound 3.16 µM
[24] = second compound 1 µM, first compound 10 µM
[25] = second compound 3.16 µM, first compound 0.0316 µM
[26] = second compound 3.16 µM, first compound 0.1 µM
[27] = second compound 3.16 µM, first compound 0.316 µM
[28] = second compound 3.16 µM, first compound 1 µM
[29] = second compound 3.16 µM, first compound 3.16 µM
[30] = second compound 3.16 µM, first compound 10 µM
[31] = second compound 10 µM, first compound 0.0316 µM
[32] = second compound 10 µM, first compound 0.1 µM
[33] = second compound 10 µM, first compound 0.316 µM
[34] = second compound 10 µM, first compound 1 µM
[35] = second compound 10 µM, first compound 3.16 µM
[36] = second compound 10 µM, first compound 10 µM
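Note: spheroids exposed to compounds for seven days before readout.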

CC1COCCN1c1cc(C2(O)CC3CCC(C2)O3)c2cnn(-c3ccn[nH]3)c2n1 (stereo unspecified) + Cc1cccc(N(C)C(=O)C2C(O)CCN2c2nc(C)cc(C(F)(F)F)c2C#N)c1 was tested, and the IC50 (second compound 0.0316 µM) was 0.247 µM, the IC50 (second compound 0.1 µM) was 0.365 µM and the IC50 (second compound 0.316 µM) was 0.291 µM. For the same compound, the IC50 (second compound 1 µM) was 0.202 µM, the IC50 (second compound 3.16 µM) was 0.268 µM and the IC50 (second compound 10 µM) was 0.231 µM. The viability, T/C [1] was 73.2%, the viability, T/C [2] was 56.1% and the viability, T/C [3] was 50.3%. For the same compound, the viability, T/C [4] was 41.7%, the viability, T/C [5] was 42.7% and the viability, T/C [6] was 43.6%. It also gave a viability, T/C [7] of 60.5%, a viability, T/C [8] of 62.9% and a viability, T/C [9] of 50.1%. For the same compound, the viability, T/C [10] was 38.3%, the viability, T/C [11] was 50.1% and the viability, T/C [12] was 59.1%. It also gave a viability, T/C [13] of 76.4%, a viability, T/C [14] of 69.9% and a viability, T/C [15] of 48.4%. The viability, T/C [16] was 45.9%, the viability, T/C [17] was 41.3% and the viability, T/C [18] was 48.7%. For the same compound, the viability, T/C [19] was 67.1%, the viability, T/C [20] was 59.5% and the viability, T/C [21] was 38.4%. It also gave a viability, T/C [22] of 43.4%, a viability, T/C [23] of 46.6% and a viability, T/C [24] of 47.5%. For the same compound, the viability, T/C [25] was 60.5%, the viability, T/C [26] was 62.5% and the viability, T/C [27] was 47.6%. The viability, T/C [28] was 41.1%, the viability, T/C [29] was 54.4% and the viability, T/C [30] was 49.3%. The viability, T/C [31] was 56.3%, the viability, T/C [32] was 55.9% and the viability, T/C [33] was 50.5%. It also gave a viability, T/C [34] of 36.9%, a viability, T/C [35] of 51.7% and a viability, T/C [36] of 40.1%.

For CCCS(=O)(=O)Nc1ccc(F)c(C(=O)c2c[nH]c3ncc(-c4ccc(Cl)cc4)cc23)c1F + Cc1cccc(N(C)C(=O)C2C(O)CCN2c2nc(C)cc(C(F)(F)F)c2C#N)c1, the IC50 (second compound 0.0316 µM) was 6.96 µM, the IC50 (second compound 0.1 µM) was 6.4 µM and the IC50 (second compound 0.316 µM) was 6.8 µM. The IC50 (second compound 1 µM) was 6.73 µM, the IC50 (second compound 3.16 µM) was 6.62 µM and the IC50 (second compound 10 µM) was 6.51 µM. The viability, T/C [1] was 87.7%, the viability, T/C [2] was 104% and the viability, T/C [3] was 97%. The viability, T/C [4] was 99.3%, the viability, T/C [5] was 98.8% and the viability, T/C [6] was 28.1%. For the same compound, the viability, T/C [7] was 106%, the viability, T/C [8] was 105% and the viability, T/C [9] was 93.6%. The viability, T/C [10] was 94.5%, the viability, T/C [11] was 98.7% and the viability, T/C [12] was 19.1%. The viability, T/C [13] was 107%, the viability, T/C [14] was 99.6% and the viability, T/C [15] was 93.2%. The viability, T/C [16] was 95.5%, the viability, T/C [17] was 109% and the viability, T/C [18] was 24.2%. It also gave a viability, T/C [19] of 95.6%, a viability, T/C [20] of 111% and a viability, T/C [21] of 99.5%. For the same compound, the viability, T/C [22] was 91.3%, the viability, T/C [23] was 103% and the viability, T/C [24] was 23.6%. It also gave a viability, T/C [25] of 92.1%, a viability, T/C [26] of 96% and a viability, T/C [27] of 82.2%. The viability, T/C [28] was 100%, the viability, T/C [29] was 102% and the viability, T/C [30] was 25.2%. It also gave a viability, T/C [31] of 115%, a viability, T/C [32] of 99% and a viability, T/C [33] of 97%. The viability, T/C [34] was 99.9%, the viability, T/C [35] was 96.5% and the viability, T/C [36] was 22.3%.

For CCc1cc2c(N3CCc4c(cc(Cn5ccnc5)cc4-c4cn(C)nc4C(F)(F)F)C3=O)ccnc2c(OC)n1 + Cc1cccc(N(C)C(=O)C2C(O)CCN2c2nc(C)cc(C(F)(F)F)c2C#N)c1, the IC50 (second compound 0.0316 µM) was > 10 µM, the IC50 (second compound 0.1 µM) was > 10 µM and the IC50 (second compound 0.316 µM) was > 10 µM. The IC50 (second compound 1 µM) was > 10 µM, the IC50 (second compound 3.16 µM) was > 10 µM and the IC50 (second compound 10 µM) was > 10 µM. It also gave a viability, T/C [1] of 104%, a viability, T/C [2] of 91% and a viability, T/C [3] of 94.5%. The viability, T/C [4] was 82%, the viability, T/C [5] was 77.7% and the viability, T/C [6] was 63.1%. The viability, T/C [7] was 91.6%, the viability, T/C [8] was 92.8% and the viability, T/C [9] was 75.9%. The viability, T/C [10] was 79.5%, the viability, T/C [11] was 77% and the viability, T/C [12] was 54.8%. The viability, T/C [13] was 96.5%, the viability, T/C [14] was 100% and the viability, T/C [15] was 92.4%. The viability, T/C [16] was 97.8%, the viability, T/C [17] was 79.7% and the viability, T/C [18] was 61.1%. For the same compound, the viability, T/C [19] was 122%, the viability, T/C [20] was 103% and the viability, T/C [21] was 93.1%. For the same compound, the viability, T/C [22] was 83.3%, the viability, T/C [23] was 82.5% and the viability, T/C [24] was 72.3%. It also gave a viability, T/C [25] of 97.8%, a viability, T/C [26] of 80.1% and a viability, T/C [27] of 83%. The viability, T/C [28] was 88.7%, the viability, T/C [29] was 79.2% and the viability, T/C [30] was 84.8%. The viability, T/C [31] was 96.3%, the viability, T/C [32] was 96.3% and the viability, T/C [33] was 80.1%. It also gave a viability, T/C [34] of 73.6%, a viability, T/C [35] of 76.3% and a viability, T/C [36] of 61.9%.
